Data from US20140256663A1, “Amphotericin Analogous Compounds and Pharmaceutical Compositions Containing Them” (CENTRO DE INVESTIGACION Y DE ESTUDIOS AVANZADOS DEL …, priority 2010, published 2014).
Values after ≈ are worked out from the molar mass of the structure shown. “Also recorded” adds a separate entry of the source.

Assays:
[1] = system: human renal cells 293Q (ATCC CLR-1573); assay: MTT cytotoxicity on human renal cells 293Q
Protocol: For cytotoxicity studies human kidney cells (ATCC No. CRL-1573) were used. The cells were cultured with Minimum Essential Medium (MEM) (GIBCO BRL), supplemented with 10% fetal bovine serum (FBS) (GIBCO BRL), 2 mM 1-glutamine (GIBCO BRL), 1.5 gL Na2HCO3 (Sigma Chemical Co), 0.1 mM nonessential amino acids (Sigma Chemical Co), and 1 mM sodium pyruvate (In vitro, S.A.). The technique of bromide of 3(4,5-dimethylthiazol-2-yl)-2,5-diphenyl tetrazolium (MTT) (Sigma Chemical Co) was applied; a technique which is based on the conversion of dye to an insoluble precipitate called formazan. This test is used as an indicator of mitochondrial function in living cells that measures the metabolic capacity in cells and serves as an indicator of cytotoxicity. […] (Mosman […], Immunol Methods, 65: 55-63). The cytoxicity test consisted of planting 10,000 cells per well in 96-well plates (Corning Incorporated Costar) in MEM and incubate them (Nuaire us autoflow CO2 water-jacketed incubator) during 24 h at 37° C. and 5% CO2. […] After incubation, cells were treated and incubated anew for 24 h. After this time the medium was aspirated carefully and replaced with 200 μL of fresh medium, and 50 μL of MTT was added for a total volume of 250 μl. They were then incubated for 4 hours in the above conditions. After that time the medium with MTT was carefully removed and 200 μL of DMSO and 25 μL of Sorensen buffer (0.1 M glycine+0.1 M NaCl at pH 10.5) were added to each well. The plate was then mixed until the formazan crystals dissolved, and it was finally read in a plate reader (Microplate Limaning System Ultramark, Biorad) at a wavelength of 550 nm.
For the tests, we used human renal ephythelial cells (293Q) (ATCC Catalog No. CRL-1573). The cells were cultured with Minimum Essential Medium (MEM) (GIBCO BRL) supplemented with 10% fetal bovine serum (FBS) (GIBCO BRL), 2 mM L-glutamine (GIBCO BRL), 1.5 g/L Na2HCO3 (Sigma Chemical Co), 0.1 mM nonessential amino acids (Sigma Chemical Co), and 1 mM sodium pyruvate (In vitro, S.A.). For cytoxicity tests, we applied the technique of bromide 3(4,5-dimethylthiazol-2-yl)-2,5-diphenyl tetrazolium (MTT) (Sigma Chemical Co), which is based on the conversion of the dye to an insoluble precipitate called formazan. This test is used as an indicator of mitochondrial function in living cells which measures the metabolic capacity in cells and serves as an indicator of cytotoxicity. (Wang, H. Z., Chang, C. H., Lin, C. P., Tsai, M. C). Using MTT viability assay to test the cytotoxicity of antibiotics and steroid to cultured porcine corneal endothelial cells. J. Ocul. Pharmacol. Ther. 1996; 12: 35-43). For the essay 10,000 cells were seeded per well in 96-well plates (Corning Incorporated Costar) in the medium already indicated and incubated for 24 h at 37° C. and 5% CO2. […] After incubation, cells were treated and incubated again for 24 h. The medium was carefully aspirated and replaced with 200 μl fresh medium, adding 50 μl MTT solution for a total volume of 250 μl. They were then incubated for 4 hours in the above conditions. The medium was carefully removed with MTT and 200 μl DMSO and 25 μl Sorense buffer (0.1 M glycine+0.1 M NaCl at pH 10.5) was added to each well. Then the plate was mixed until the formazan crystals dissolved; it was finally read in a reader plate (Microplate Limaning System Ultramark, Biorad) at a wavelength of 550 nm.

[2] = Unit channel studies in chicken egg lecithin bilayers with cholesterol
Protocol: The activity is determined by the presence of the different channels formed by polyenes in the lipid bilayer (Cotero, et al., supra; Venegas, et al., supra). […] These values were determined by the technique of unit channel delineated above.
Unit channel studies were performed according to procedures described earlier (Cotero, et al., supra, Venegas, et al., supra). Required liposomal suspensions were prepared using lecithin with cholesterol or ergosterol. These suspensions were placed in an ultrasonic bath for 15 minutes to produce unilamellar vesicles. Subsequently, the suspension was placed in a 100 μl eppendorf and a lipid bilayer was formed on the tip of a micro-electrode. The unit channels of amphotericin and of the invented compounds were incorporated to this bilayer. The unit channel current of the various compounds was recorded with an electrometer, and then these records were analyzed by determining the activity of the compounds and the characteristics of the channels formed.
The activity is determined by the presence of the various channels formed by polyenes in the lipid bilayer (Cotero, et al., supra, Venegas, et al., supra). […] This conductance is the effect of all the channels present and was determined by the unit channel technique earlier described.

[3] = system: human erythrocytes; assay: Hemolytic assay on human erythrocytes; format: cell-based; conditions: 1 hour
Protocol: The hemotoxicity of the polyene macrolide derivative of the present invention was determined by measuring the toxicity to human erythrocytes (values HE50) using a method established by Cybulska, et al. (Cybulska, B., Borowski, E. and Gary-Bobo, M. Relationship between ionophoric and hemolytic activities of perimycin A and vacidin A, two polyene macrolide antifungal antibiotics. Biochem Pharmacol. 1989; 38(11): 1755-1762). For determining the haematoxicity 2 mL blood were obtained and placed in a tube with EDTA. The number of erythrocytes was counted in a Neubauer chamber, and 1×10^7 cells/mL were placed in test tubes. The erythrocytes were resuspended in 450 μL of KCl 150 mM+Tris 3 mM buffer. The erythrocytes were treated with concentrations of 0.01, 0.1, 1, 10 y 100 μM and incubated in a water bath for 1 hour. They were then centrifuged at 1500 rpm for 15 seconds; 150 μL were taken from the supernatant and placed in 96-well plates; the optical density of each group was measured using a plate reader at a wavelength of 550 nm. We included one tube with the drug solvent (DMSO 1%) as internal control. We also included one tube only with erythrocytes and 500 μl of buffer KCl 150 mM+Tris 3 mM, which we consider as a negative control group and a tube with 500 μl of red cells and 35 mM NaCl (positive control).

[4] = system: Candida albicans ATCC 10231; assay: Antifungal activity in vitro by flow cytometry, Candida albicans ATCC 10231; format: cell-based
[5] = 200 μM compound, 30 mol % cholesterol, 27° C.

Row | SMILES | collateral cytotoxicity on human renal cells 293Q compared to AmB ([1]; FIG. 2, FIG. 8, listed as amide 7) | DT50 CitE50 ([1]; human renal cells 293Q, 24 h) | Opening probability, channel type I [2, 5] | Opening probability, channel type II [2, 5] | Opening probability, channel type III [2, 5] | Opening probability, channel type IV [2, 5] | Opening probability, channel type V [2, 5] | Opening probability, channel type VI [2, 5] | activity of transmembranal channels in the cholesterol membrane ([2]; in words, compared to AmB) | HE50 (Hemolysis 50) [3] | IC50 ([4]; ATCC10231, 24 h, read-out: CF50 Candida albicans ATCC 10231) | DT50 CitE50 ([1]; human, 24 h) | MIC50 Kidney cells (293Q) ([1]; human, 24 h) | Average conductance cholesterol ([2]; AmB 6 μM, 30° C.) | MIC50 ([4]; ATCC10231, Compounds of the present invention)
1 | COC(=O)[C@@H](Cc1c[nH]c2ccccc12)NC(=O)[C@@H]1C(O)C[C@@]2(O)C[C@@H](O)C[C@@H](O)[C@H](O)CC[C@@H](O)C[C@@H](O)CC(=O)OC(C)C(C)[C@H](O)C(C)/C=C/C=C/C=C/C=C/C=C/C=C/C=C/[C@H](OC3OC(C)C(O)C(N)C3O)CC1O2 (stereo partly shown) [A-7, N-(D)-tryptophanamide of AmB] | the lowest cytoxicity; also recorded: low cytoxicity | 220 µM | 14% | 7% | <1% | <1% | <1% | N.O. | more reduced activity of transmembranal channels | 80 µM | 1500 nM |  |  |  | 
2 | C[C@@H]1[C@H](O)[C@@H](C)/C=C/C=C/C=C/C=C/C=C/C=C/C=C/[C@H](O[C@@H]2O[C@H](C)[C@@H](O)[C@H](N)[C@@H]2O)C[C@@H]2O[C@](O)(C[C@@H](O)C[C@@H](O)[C@H](O)CC[C@@H](O)C[C@@H](O)CC(=O)O[C@H]1C)C[C@H](O)[C@H]2C(=O)O [AmB, Amphotericin B] |  |  |  |  |  |  |  |  |  | 7 µM |  | 9.7 µM | 9.7 µM (≈ 8.96 µg/mL) | 26.6 ± 9.9 fS | 0.2 µg/mL (≈ 0.216 µM)
